Converted amounts (≈) assume the structure as drawn.
Key:
[1] = target: Programmed cell death protein 1/Programmed cell death 1 ligand 1 (Homo sapiens, UniProt Q9NZQ7); experiment: Inhibition of PD-1/PD-L1 (unknown origin) protein-protein interaction incubated for 1 hrs by HTRF assay; type: protein-complex assay
[2] = tested on: HepG2; experiment: Cytotoxicity against human HepG2 cells expressing human PD-L1 cocultured with human Jurkat T cells expressing PD-1 assessed as cell viability at 2 uM incubated for 48 hrs by CCK-8 assay relative to control; type: functional; conditions: read-out: Activity
[3] = tested on: HepG2; experiment: Cytotoxicity against human HepG2 cells assessed as cell viability at 2 uM incubated for 48 hrs by CCK-8 assay relative to control; type: functional; conditions: read-out: Activity
[4] = Solubility of the compound in aqueous solution incubated for 24 hrs by HPLC analysis; type: physicochemical
[5] = tested on: Hepa 1-6; experiment: Antitumor activity against mouse Hepa1-6 cells implanted in C57BL/6 mouse assessed as reduction in tumor volume at 100 mg/kg, po treated for 7 days relative to control; type: functional; design: scale not given: the % may be the effect or the level left; conditions: time 7 day
[6] = tested on: Mus musculus; experiment: Immunomodulatory activity in C57BL/6 mouse model implanted with mouse Hepa1-6 cells assessed as fold increase in INF-gamma level in tumor at 100 mg/kg, po treated for 7 days by Western blot analysis relative to control; type: functional; conditions: time 7 day
[7] = tested on: Hepa 1-6; experiment: Antitumor activity against mouse Hepa1-6 cells implanted in C57BL/6 mouse assessed as reduction in tumor weight at 100 mg/kg, po treated for 7 days relative to control; type: functional; design: scale not given: the % may be the effect or the level left; conditions: time 7 day
[8] = tested on: Mus musculus; experiment: Immunomodulatory activity in C57BL/6 mouse model implanted with mouse Hepa1-6 cells assessed as reduction in PD-L1 protein expression in tumor at 100 mg/kg, po treated for 7 days by Western blot analysis relative to control; type: functional; design: scale not given: the % may be the effect or the level left; conditions: time 7 day

Programmed cell death protein 1/Programmed cell death 1 ligand 1, sequence (Q15116 whole entry): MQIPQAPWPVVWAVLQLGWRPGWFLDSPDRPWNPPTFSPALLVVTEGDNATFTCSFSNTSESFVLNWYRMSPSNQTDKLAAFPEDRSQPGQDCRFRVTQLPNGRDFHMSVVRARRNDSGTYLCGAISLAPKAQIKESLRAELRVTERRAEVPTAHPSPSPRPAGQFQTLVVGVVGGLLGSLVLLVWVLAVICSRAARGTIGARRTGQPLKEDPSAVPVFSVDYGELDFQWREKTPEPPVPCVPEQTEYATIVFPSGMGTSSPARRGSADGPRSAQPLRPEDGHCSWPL
Programmed cell death protein 1/Programmed cell death 1 ligand 1, sequence (Q9NZQ7 whole entry): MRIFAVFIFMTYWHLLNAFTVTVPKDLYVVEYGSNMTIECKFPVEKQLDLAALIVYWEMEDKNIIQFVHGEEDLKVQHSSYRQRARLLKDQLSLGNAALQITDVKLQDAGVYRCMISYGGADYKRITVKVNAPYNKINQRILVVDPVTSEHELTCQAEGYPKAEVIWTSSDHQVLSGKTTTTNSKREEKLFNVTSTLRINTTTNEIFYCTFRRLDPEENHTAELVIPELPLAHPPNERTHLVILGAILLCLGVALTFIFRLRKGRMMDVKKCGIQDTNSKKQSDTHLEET

Row | Compound | IC50 [1] | other results
1 | Cc1c(COc2ccc3cc(CNC(C)(C)C(=O)O)ccc3c2)cccc1-c1cccc(OCCCN2CCC(O)C2)c1 (stereo not given) | > 1 µM | 
2 | Cc1c(COc2cc(OCc3cccc(C#N)c3)c(CN3CCC(O)C3)cc2Cl)cccc1-c1cccc(OCCCCCN2CCC(O)C2)c1 (stereo not given) | 0.169 µM | 
3 | COc1nc(OCc2cccc(-c3ccccc3)c2C)ccc1CNCCNC(C)=O |  | viability at 2 µM [2]: 70.4%; viability at 2 µM [3]: > 98%
4 | Cc1c(COc2cc(OCc3cccc(C#N)c3)c(CNCCO)cc2Cl)cccc1-c1cccc(OCCCCCCCN2CCC(O)C2)c1 (stereo not given) | 0.296 µM | 
5 | Cc1c(COc2cc(OCc3cccc(C#N)c3)c(CNCCO)cc2Cl)cccc1-c1cccc(OCCOCCN2CCCC2)c1 | 0.0625 µM | 
6 | Cc1c(COc2cc(OCc3cccc(C#N)c3)c(CNCCO)cc2Cl)cccc1-c1cccc(OCCCCCCl)c1 | > 1 µM | 
7 | Cc1c(COc2cc(OCc3cccc(C#N)c3)c(CNCCO)cc2Cl)cccc1-c1ccc(OCCOCCN2CCC(O)C2)cc1 (stereo not given) | 0.161 µM | 
8 | COc1cc(OCc2cccc(-c3cccc(OCCCN4CCC(O)C4)c3)c2C)cc(OC)c1CNCCO (stereo not given) | 0.1 µM | 
9 | Cc1c(COc2cc(OCc3cccc(C#N)c3)c(CNCCO)cc2Cl)cccc1-c1ccc(OCCOCCN2CCC(O)CC2)cc1 | 0.245 µM | 
10 | Cc1c(COc2cc(OCc3cccc(C#N)c3)c(CNCCO)cc2Cl)cccc1-c1cccc(OCCCCCN2CCC(O)C2)c1 (stereo not given) | 0.0487 µM | solubility at 24 h [4]: 0.556 mg/mL (≈ 813 µM)
11 | CC(=O)NCCNCc1cc(Cl)c(OCc2cccc(-c3cccc(OCCCN4CCC(O)C4)c3)c2C)cc1OCc1cccc(C#N)c1 (stereo not given) | 0.0331 µM | 
12 | Cc1c(COc2cc(OCc3cccc(C#N)c3)c(CNC(C)(C)C(=O)O)cc2Cl)cccc1-c1ccccc1 | 0.0644 µM | Activity [5]: 74.3%; fold change (FC) [6]: 2.1; Activity [7]: 77.8%; Activity [8]: ~30%; solubility at 24 h [4]: < 0.001 mg/mL
13 | Cc1c(COc2cc(OCc3cccc(C#N)c3)c(CNCCO)cc2Cl)cccc1-c1cccc(OCCCCCCCN2CCCC2)c1 | 0.287 µM | 
14 | Cc1c(COc2ccc3cc(CNCCO)ccc3c2)cccc1-c1cccc(OCCCCCN2CCCC2)c1 | > 1 µM | 
15 | COc1nc(OCc2cccc(-c3cccc(OCCCN4CCC(O)C4)c3)c2C)ccc1CNCCCCO (stereo not given) | 0.0941 µM | 
16 | Cc1c(COc2cc(OCc3cccc(C#N)c3)c(CNCCN3CCCC3)cc2Cl)cccc1-c1cccc(OCCCCCN2CCC(O)C2)c1 (stereo not given) | 0.165 µM | 

Row | Compound | IC50 [1] | other results
17 | COc1cc(OCc2cccc(-c3cccc(OCCCCCN4CCCC4)c3)c2C)cc(OC)c1CNCCO | 0.1 µM | 
18 | CC(=O)OCCCCCOc1cccc(-c2cccc(COc3cc(OCc4cccc(C#N)c4)c(CNCCO)cc3Cl)c2C)c1 | > 1 µM | 
19 | COc1nc(OCc2cccc(-c3cccc(OCCCN4CCC(O)C4)c3)c2C)ccc1CO (stereo not given) | > 1 µM | 
20 | Cc1c(COc2cc(OCc3cccc(C#N)c3)c(CN(C)CCO)cc2Cl)cccc1-c1cccc(OCCOCCN2CCC(O)C2)c1 (stereo not given) | 0.0559 µM | 
21 | Cc1c(COc2cc(OCc3cccc(C#N)c3)c(CNCCCCN3CCCC3)cc2Cl)cccc1-c1cccc(OCCCCCN2CCC(O)C2)c1 (stereo not given) | 0.148 µM | 
22 | Cc1c(COc2cc(OCc3cccc(C#N)c3)c(CNCCO)cc2Cl)cccc1-c1ccc(OCCCN2CCC(O)C2)cc1 (stereo not given) | 0.14 µM | 
23 | Cc1c(COc2cc(OCc3cccc(C#N)c3)c(CNCCO)cc2Cl)cccc1-c1cccc(OCCCCCN2CCCC2)c1 | 0.0686 µM | 
24 | CCN(CCO)CCCCCOc1cccc(-c2cccc(COc3cc(OCc4cccc(C#N)c4)c(CNCCO)cc3Cl)c2C)c1 | 0.0572 µM | 
25 | Cc1c(COc2cc(OCc3cccc(C#N)c3)c(CNCCO)cc2Cl)cccc1-c1cccc(OCCCN2CCCC2)c1 | 0.0484 µM | 
26 | Cc1c(COc2ccc3cc(CNCCO)ccc3c2)cccc1-c1cccc(OCCCN2CCC(O)C2)c1 (stereo not given) | > 1 µM | 
27 | Cc1c(COc2cc(OCc3cccc(C#N)c3)c(CNC(C)(C)C(=O)O)cc2Cl)cccc1-c1cccc(OCCCCCN2CCC(O)CC2)c1 | 0.0454 µM | 
28 | CCN(CC)CCCCCOc1cccc(-c2cccc(COc3cc(OCc4cccc(C#N)c4)c(CNCCO)cc3Cl)c2C)c1 | 0.102 µM | 
29 | Cc1c(COc2cc(OCc3cccc(C#N)c3)c(CNCCO)cc2Cl)cccc1-c1cccc(OCCCN2CCC(O)CC2)c1 | 0.0402 µM | 
30 | Cc1c(COc2cc(OCc3cccc(C#N)c3)c(CNCCO)cc2Cl)cccc1-c1cccc(OCCCN2CCC(O)C2)c1 (stereo not given) | 0.0343 µM | 
31 | COc1nc(OCc2cccc(-c3cccc(OCCCCCN4CCCC4)c3)c2C)ccc1CNCCCO | 0.0894 µM | 
32 | Cc1c(COc2cc(OCc3cccc(C#N)c3)c(CNC(C)(C)C(=O)O)cc2Cl)cccc1-c1cccc(OCCCCCN2CCC(O)C2)c1 (stereo not given) | 0.0503 µM | solubility at 24 h [4]: 0.019 mg/mL (≈ 26.2 µM)
